The subject of one data set is Cryptococcus neoformans. The experiment in a line: In vitro susceptibility testing (MIC). It is filed as cell-based.
The subject of data set [1] is synthesis of GlcCer in mammalian (J774) cells. Put plainly: In vivo labeling with 3H palmitate, TLC of GlcCer. The class given is cell-based, murine. The conditions noted are these: 3H palmitate labeling.
Data set [2] relates to C. neoformans. The experiment in a line: In vitro killing assay (time-kill, CFU). The class given is cell-based, Cryptococcus neoformans. As for the experimental part: At the illustrated time points, aliquots were taken and diluted and 100 μL was plated onto yeast peptone dextrose (YPD) plates. YPD plates were incubated in a 30° C. incubator and, after 72 hours, colony forming units (CFU) were counted and recorded.

The next data set can be described thus: Solubility. It is filed as physicochemical. The conditions noted are these: at 1 mg/ml concentration.
Data set [3] deals with C. neoformans H99. The experiment in a line: Animal studies for cryptococcosis (intranasal infection). It is filed as in vivo, mice.
Another data set deals with A549 cell line. Put plainly: In vitro toxicity. The class given is cell-based.
The next data set concerns L2 cell line. The experiment in a line: In vitro toxicity. The class given is cell-based.
A further data set deals with Candida albicans SC-5314. The experiment in a line: Animal studies for candidiasis (intravenous infection). The class given is in vivo, mice. On the procedure:
For survival studies, 8-week old CBA/J female mice (Jackson Laboratory) were used. Eight mice per treatment or control group were used. Mice were infected by intravenous inoculation of 100 μL containing 1×10^5 cells of Candida albicans SC-5314 strain. […] Untreated mice, received 100 μL of PBS/0.4% DMSO. Mice were feed ad-libitum and monitored closely for sign of discomfort. At the end of the survival study, tissue burden culture was performed in mice that survived the infection. Mice were sacrificed and their organs were extracted and homogenized in 10 ml sterile PBS using homogenizer. Organ homogenates were diluted 10 times in PBS, and 100 μL was plated on YPD agar plates and incubated at 30° C. for 72 hours for CFU count.

In data set [4] the test system is C. neoformans sphingolipids. Put plainly: Sphingolipid levels by TLC and lipid mass spectrometry. The class given is cell-based, Cryptococcus neoformans. The conditions noted are these: TLC, confirmed by mass spectrometry. As for the experimental part: Labeling fungal cells. […] Samples without drug were included as control. Before lipid extraction, lipid internal standards (C17 ceramide and C17 sphingosine) were added. Lipids were then extracted following the methods of […] and Bligh and Dyer and one fourth of the sample was aliquoted for determination of the inorganic phosphate. The remainder of the sample was subjected to base hydrolysis and then analyzed using LC/MS. Results were normalized with the inorganic phosphate levels.

The subject of a further data set is Candida spp. The experiment in a line: In vitro susceptibility testing. The conditions noted are these: most Candida spp examined. It is filed as cell-based.
In data set [5] the test system is P. murina.
The test system of data set [6] is P. murina. This is another data set of the same source.
Data set [7] in a line: In vitro toxicity, MTT assay. The conditions noted are these: mouse, J774.16 macrophage cells.
Data set [8] in a line: In vivo toxicity in uninfected mice. The conditions noted are these: treated daily for 60 days.
Data set [9] has as its system C. neoformans. The experiment in a line: Resistance assay, daily passages in sub-MIC drug. The conditions noted are these: 15 days of passages below the MIC.
In data set [10] the test system is synthesis of GlcCer in C. neoformans cells. The experiment in a line: In vivo labeling with 3H palmitate, TLC of GlcCer. The conditions noted are these: 3H palmitate labeling.
The test system of another data set is C. neoformans (H99). The experiment in a line: Transmission electron microscopy of treated cells. The conditions noted are these: 4 μg/mL, 6 hours.
Data set [11] concerns C. neoformans. The experiment in a line: Synergistic assay (fractional inhibitory index, FIC).
The subject of data set [12] is P. murina. Put plainly: Animal studies for pneumocystosis, CD4-depleted mice. The conditions noted are these: mouse, in vivo.
Data set [13] deals with C. neoformans H99. Put plainly: Comparison studies, intravenous (CNS) cryptococcosis survival. It is filed as in vivo, mice. On the procedure: For survival studies, 4-week old CBA/J female mice (Jackson Laboratory, Bar Harbor, Me.) were used. Total of forty mice were infected by tail vein injection of 200 μL containing 10^5 cells of C. neoformans H99 and were randomly separated into 5 groups (8 mice per group). Treatment started within 2 hours of infection. The treated mice received an intraperitoneal injection of 1.2 mg/kg/day of BHBM, 1, amphotericin B or 10 mg/kg/day of fluconazole in 100 μL final volume of PBS containing 0.4% DMSO. Untreated mice, received 100 μL of PBS/0.4% DMSO. Mice were fed ad-libitum and monitored closely for sign of discomfort and meningitis. Mice showing abnormal gait, lethargy, tremor, significant loss of body weight, or inability to reach water or food were sacrificed and survival was counted until that day.

A further data set relates to Pneumocystis murina. Put plainly: In vitro testing by ATP content (luciferin-luciferase). The conditions noted are these: read-out: percentage inhibition of ATP.
The subject of the next data set is Pneumocystis jiroveci. The data set is described as above. The conditions noted are these: read-out: percentage inhibition of ATP.

Converted amounts (≈) assume the structure as drawn. “And” between values parts separate entries of the source, which are not always exact repeats. Identical values can stand only once. Like-named read-outs stand apart in the source and are kept apart here.

Take `O=C(NN=Cc1ccc(O)c(Br)c1)c1cccc(Br)c1` [Compound 1, 3-bromo-N′-(3-bromo-4-hydroxybenzylidene) benzohydrazide]: in the data set on Cryptococcus neoformans, the “antifungal activity of derivatives” value was “improved activity”. For the same molecule, the MFC in the data set on Cryptococcus neoformans (Cryptococcus neoformans, read-out: MFC (minimum fungicidal concentration)) was found to be 1.2 µg/mL (≈ 3.01 µM). Besides, the “inhibition of the synthesis of GlcCer” value in data set [1] is listed as “no significant changes”; in data set [1] (listed as #5285729), “not in mammalian (J774) cells”; in [10], “significantly inhibit the synthesis of GlcCer”. In addition, in the data set on C. neoformans [2] (time-kill assay), the type of killing result was “time-dependent killing”. This molecule also showed a dead cells in the data set with C. neoformans [2] (within 24 hours) of 100%. In addition, in “Solubility”, the DMSO required is listed as 50%. The molecule further yielded a mice surviving infection with C. neoformans H99 [3] (1.2 mg/Kg/day intraperitoneally, up to 60 days) of 70%. In addition, in the data set on C. neoformans H99 [3] (1.2 mg/Kg/day, day 60), the “fungal burden in brain” value was “No C. neoformans cells were found in brains”. For the same molecule, in the data set on C. neoformans H99 [3] (1.2 mg/Kg/day, day 60, compared to infected untreated mice), the “fungal burden in lung” value is “decrease the fungal burden in the lung”. Further, the brain histology entry with C. neoformans H99 [3] (day 60) is “no fungal cells and normal structure”. Further, the lung histology result in the data set on C. neoformans H99 [3] (day 60) is given as “granulomatous response limited in few areas of the lung”. In addition, the toxicity entry in the data set on A549 cell line and in the data set on L2 cell line was “slight to moderate toxicity” throughout. For the same molecule, the mice alive in the data set with Candida albicans SC-5314 (1.2 mg/kg/day intraperitoneally, after 21 days of infection) was found to be 75%. Further, in the data set with Candida albicans SC-5314 (day 21, surviving treated mice), the “clearance of infection (tissue burden)” value was “able to clear C. albicans infection”. In data set [4], the sphingosine level result is “accumulation of sphingosines”. Moreover, the in vitro susceptibility result in the data set on Candida spp was “resistant”. Further, the “toxicity in mice immunosuppressed with corticosteroids” value in the data set on P. murina [5] is on record as “some toxicity”. Also, in the data set on P. murina [5] (1.25 mg/kg/day and 12.5 mg/kg/day for 14 days), the “asci and troph burdens vs vehicle” value is reported as “significantly reduced”. The “survival vs control steroid negative controls” value in the data set on P. murina [5] (1.25 and 12.5 mg/kg/day, 14 days) is “did not increase survival”. In addition, in the data set with P. murina [6] (14 days of treatment), the survival entry is reported as “improved survival”. In addition, the “number of asci in the lung” value in the data set with P. murina [6] (day 14) is “significantly decreased”. Further, the EC50 at 48 h in [7] was found to be 50 µg/mL (≈ 126 µM). Also, the “appearance, weight, physical activity and behavior” value in data set [8] is on record as “appeared normal”. The development of resistance entry in the data set on C. neoformans [9] is “do not develop resistance”. The “number of vacuoles per μm^2 of cell surface area” value with C. neoformans (H99) worked out at 0.93±0.54. Also, the FIC index is recorded as 0.77 in the data set on C. neoformans [11] (combined with Amphotericin B), 0.47 in the data set with C. neoformans [11] (combined with Fluconazole) and 1 in the data set with C. neoformans [11] (combined with caspofungin). In the data set with C. neoformans [11] (combined with Tunicamycin), the interaction result was “additive”. The signs of toxicity result in the data set on P. murina [12] was “no signs of toxicity”.

Molecule `C[C@@H]1[C@H](O)[C@@H](C)/C=C/C=C/C=C/C=C/C=C/C=C/C=C/[C@H](O[C@@H]2O[C@H](C)[C@@H](O)[C@H](N)[C@@H]2O)C[C@@H]2O[C@](O)(C[C@@H](O)C[C@@H](O)[C@H](O)CC[C@@H](O)C[C@@H](O)CC(=O)O[C@H]1C)C[C@H](O)[C@H]2C(=O)O` [Amphotericin B] yielded an average survival in the data set on C. neoformans H99 [13] (IP, 1.2 mg/kg/day BHBM, 1, amphotericin B, 10 mg/kg/day fluconazole) of 23.5 ± 6.5 days.

For `N=C(N)c1ccc(OCCCCCOc2ccc(C(=N)N)cc2)cc1` [Pentamidine, reference compound], the inhibition at 1 µg/mL worked out at 78.2% in the data set with Pneumocystis murina (24 h); 80.3% with Pneumocystis murina (48 h); 74.1% with Pneumocystis murina (72 h); 27.8% in the data set with Pneumocystis murina (96 h); 45.7% with Pneumocystis jiroveci (24 h); 86.5% with Pneumocystis jiroveci (48 h). For the same molecule, the inhibition at 1 µg/mL is 84.2% in the data set on Pneumocystis jiroveci (72 h) and 81.4% with Pneumocystis jiroveci (96 h).

For the molecule `OC(Cn1cncn1)(Cn1cncn1)c1ccc(F)cc1F` [fluconazole], the average survival in the data set with C. neoformans H99 [13] (mouse, in vivo) was 10 ± 2 days and 10.0 ± 2.0 days.

The values above are taken from patent publication US11390580B2, “Anti-fungals targeting the synthesis of fungal shingolipids” (THE RESEARCH FOUNDATION FOR THE STATE UNIVERSITY OF NEW YORK, priority 2014, dated 2022).
